Source: ChEMBL document CHEMBL3045414, “Synthesis and evaluation of 2,4,6-trisubstituted pyrimidine derivatives as novel antileishmanial agents” (2013)

Tested on: Leishmania donovani
Assay: Antileishmanial activity against promastigote stage of Leishmania donovani assessed as parasite growth inhibition at 10 ug/ml after 2 hr by MTT assay relative to control
Type: functional
Conditions: read-out: GI

**Q.** `Nc1nc(-c2ccccc2)cc(-c2ccc(-n3ccnc3)cc2)n1` was tested. Which inhibition of growth at 10 µg/mL did it give?
**A.** 32.8%

**Q.** Which inhibition of growth at 10 µg/mL does the source give for `Nc1nc(-c2ccc(Cl)cc2)cc(-c2ccc(-n3ccnc3)cc2)n1` here?
**A.** 46.1%

**Q.** For `Nc1nc(-c2ccc(Br)cc2)cc(-c2ccc(-n3ccnc3)cc2)n1`, which inhibition of growth at 10 µg/mL is on record?
**A.** 24.3%

**Q.** For `COc1ccc(-c2cc(-c3ccc(-n4ccnc4)cc3)nc(N)n2)cc1`, which inhibition of growth at 10 µg/mL is on record?
**A.** 18.1%

**Q.** `Nc1nc(-c2ccccc2)cc(-c2ccc(-n3cnc4ccccc43)cc2)n1` was tested. Which inhibition of growth at 10 µg/mL did it give?
**A.** 41.9%

**Q.** For `Nc1nc(-c2ccc(F)cc2)cc(-c2ccc(-n3cnc4ccccc43)cc2)n1`, which inhibition of growth at 10 µg/mL is on record?
**A.** 29.6%

**Q.** How did the inhibition of growth at 10 µg/mL turn out when `Nc1nc(-c2ccc(Cl)cc2)cc(-c2ccc(-n3cnc4ccccc43)cc2)n1` was run?
**A.** 32.7%

**Q.** For `Nc1nc(-c2ccc(-n3cnc4ccccc43)cc2)cc(-c2ccc(Cl)cc2Cl)n1`, which inhibition of growth at 10 µg/mL is on record?
**A.** 56.4%

**Q.** How did the inhibition of growth at 10 µg/mL turn out when `Nc1nc(-c2ccc(Br)cc2)cc(-c2ccc(-n3cnc4ccccc43)cc2)n1` was run?
**A.** 32.5%

**Q.** For `COc1ccc(-c2cc(-c3ccc(-n4cnc5ccccc54)cc3)nc(N)n2)cc1`, which inhibition of growth at 10 µg/mL is on record?
**A.** 51.2%
